One assay addresses T1, PIK3CA (Homo sapiens, UniProt P42336).
T1 construct: endogenous in cells; host or cells: Jurkat cell lysate
The assay can be described thus: In vitro ELISA target engagement assay for PIK3CA in Jurkat cellular lysate (competition with PIK3CA Biotin Probe). The assay is classed as binding. The conditions noted are these: 1 hour at rt, then 500 nM PIK3CA Biotin Probe, read-out: Elisa Target Engagement Assay (TE50). The essentials: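 Jurkat lysate from sonicated frozen cells was preincubated 1 h at rt with serially diluted compound up to 200 μM, then labelled 1 h at rt with PIK3CA biotin probe at 500 nM final. Probe-bound PIK3CA was captured on antibody-coated plates and detected with Neutravidin-HRP luminescence; TE50 derived from the dose response.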

In assay [1] the test system is pAKT(S473) in FaDu cell line. The assay can be described thus: In vitro Phospho-AKT(S473) HTRF analysis in FaDu cells. The assay is classed as cell-based. The conditions noted are these: Homo sapiens, 0.5 h; for IC50: FaDu cells, 30 minutes at 37° C.; for Emax: FaDu, read-out: FaDu pAKT Imax % control. As to the method: Example 5. In Vitro Phosgho-AKT(S473) Analysis
Functional activity of the compounds to inhibit pAKT were assessed in FaDu or H358 cell lines as indicated below.
• Complete Media • FBS, Corning catalog #35-010-CV • Anti-Anti, Gibco catalog #15240-062 • 96 well plate, Corning catalog #3610 • TrypLE, Gibco catalog #12604013 • Phospho-AKT(S473) HTRF kit, Cisbio catalog #64AKSPET
Cells were detached from the tissue culture flask with TrypLE. The cells were pelleted at 500×g for 5 min, TrypLe was removed and then resuspended in the necessary volume of media+1% FBS to give the appropriate cell density (17,500 cells/mL for FaDu; 20,000 cells/mL for H358). 100 μL of cell suspension/well was dispensed into the 96-well plate while keeping the outer wells of the plate free of cells and filled with PBS to prevent evaporation of interior wells. The plate was incubated at 37° C. and allowed to adhere overnight. The cells were treated with a dose response of compound and incubated at 37° C. for 30 minutes. The cells were then processed and pAKT(S473) levels were assessed following the specifications of the Cisbio HTRF kit.
For orientation: TR-FRET usually uses a lanthanide donor and a delayed reading to cut background.

T1 sequence (P42336 whole entry): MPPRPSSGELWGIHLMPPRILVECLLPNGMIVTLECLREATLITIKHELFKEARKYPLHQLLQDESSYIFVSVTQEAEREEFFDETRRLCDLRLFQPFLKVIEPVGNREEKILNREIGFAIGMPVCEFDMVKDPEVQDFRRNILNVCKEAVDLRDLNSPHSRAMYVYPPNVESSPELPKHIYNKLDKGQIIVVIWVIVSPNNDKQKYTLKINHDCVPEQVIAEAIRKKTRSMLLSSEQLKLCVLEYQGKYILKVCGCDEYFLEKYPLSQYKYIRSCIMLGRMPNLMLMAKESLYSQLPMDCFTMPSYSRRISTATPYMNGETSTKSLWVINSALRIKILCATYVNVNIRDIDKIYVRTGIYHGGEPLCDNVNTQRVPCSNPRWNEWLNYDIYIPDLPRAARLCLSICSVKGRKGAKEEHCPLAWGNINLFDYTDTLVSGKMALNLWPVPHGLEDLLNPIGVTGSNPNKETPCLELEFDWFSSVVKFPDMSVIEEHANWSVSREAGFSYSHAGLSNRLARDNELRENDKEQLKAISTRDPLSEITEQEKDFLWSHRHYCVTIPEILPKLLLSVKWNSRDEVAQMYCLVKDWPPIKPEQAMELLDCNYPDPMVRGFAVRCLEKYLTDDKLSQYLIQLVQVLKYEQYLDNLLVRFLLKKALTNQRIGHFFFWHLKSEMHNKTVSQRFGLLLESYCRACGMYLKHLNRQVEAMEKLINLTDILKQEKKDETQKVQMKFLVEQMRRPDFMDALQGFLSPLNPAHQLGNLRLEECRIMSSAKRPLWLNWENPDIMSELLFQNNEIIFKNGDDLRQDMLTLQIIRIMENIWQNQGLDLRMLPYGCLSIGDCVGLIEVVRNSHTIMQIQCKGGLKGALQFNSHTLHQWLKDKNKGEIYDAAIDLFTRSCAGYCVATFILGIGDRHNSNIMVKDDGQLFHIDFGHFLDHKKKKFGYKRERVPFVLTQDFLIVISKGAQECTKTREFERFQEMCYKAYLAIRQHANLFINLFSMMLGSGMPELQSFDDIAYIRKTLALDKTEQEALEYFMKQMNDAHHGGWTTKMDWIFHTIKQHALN
T1 sequence (P27986 whole entry partner): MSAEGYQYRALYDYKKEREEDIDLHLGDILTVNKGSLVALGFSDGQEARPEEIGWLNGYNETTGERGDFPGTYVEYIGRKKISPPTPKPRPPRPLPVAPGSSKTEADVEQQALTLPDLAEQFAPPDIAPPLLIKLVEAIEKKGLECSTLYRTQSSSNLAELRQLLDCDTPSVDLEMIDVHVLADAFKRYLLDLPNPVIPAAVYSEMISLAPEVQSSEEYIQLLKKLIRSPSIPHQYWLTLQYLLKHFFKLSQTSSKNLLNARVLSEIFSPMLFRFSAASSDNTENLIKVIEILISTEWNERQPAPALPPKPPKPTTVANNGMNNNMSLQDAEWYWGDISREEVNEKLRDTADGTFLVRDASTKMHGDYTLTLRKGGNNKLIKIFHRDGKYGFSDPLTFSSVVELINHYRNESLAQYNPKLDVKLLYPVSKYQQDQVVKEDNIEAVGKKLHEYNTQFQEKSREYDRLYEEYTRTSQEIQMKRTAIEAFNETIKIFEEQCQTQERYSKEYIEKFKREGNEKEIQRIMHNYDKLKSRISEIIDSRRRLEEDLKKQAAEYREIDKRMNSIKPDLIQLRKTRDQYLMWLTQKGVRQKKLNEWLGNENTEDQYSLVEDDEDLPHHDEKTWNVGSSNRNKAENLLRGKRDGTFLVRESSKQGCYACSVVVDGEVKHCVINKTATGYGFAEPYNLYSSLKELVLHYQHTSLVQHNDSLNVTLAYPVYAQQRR

As to `CCOc1ccc(S(=O)(=O)N2CC[C@@](F)(C(=O)N[C@H](C)/C=C\S(C)(=O)=O)C[C@H]2C)c(-c2ccccc2Cl)c1` [Compound 299, (2R,4S)-1-((2′-chloro-5-ethoxy-[1,1′-biphenyl]-2-yl)sulfonyl)-4-fluoro-2-methyl-N-((R,Z)-4-(methylsulfonyl)but-3-en-2-yl)piperidine-4-carboxamide], the IC50 on PIK3CA was found to be 210 nM; in assay [1], 146 nM. The Emax in assay [1] is 99.6%.

As for `CS(=O)(=O)/C=C\[C@H](CC(F)(F)F)NC(=O)C1(F)CCN(S(=O)(=O)c2ccc(Br)cc2-c2ccccc2Cl)CC1` (single isomer, unassigned) [Compound 240, (*S,Z)-1-((5-bromo-2′-chloro-[1,1′-biphenyl]-2-yl)sulfonyl)-4-fluoro-N-(5,5,5-trifluoro-1-(methylsulfonyl)pent-1-en-3-yl)piperidine-4-carboxamide], the IC50 on PIK3CA came to 120 nM; in assay [1] it was 437 nM.

Regarding `[2H]C([2H])([2H])Oc1ccc(S(=O)(=O)N2CC[C@@](F)(C(=O)N[C@H](C)/C=C\S(C)(=O)=O)C[C@H]2C)c(-c2ccccc2Cl)c1` [Compound 301, (2R,4S)-1-((2′-chloro-5-(methoxy-d3)-[1,1′-biphenyl]-2-yl)sulfonyl)-4-fluoro-2-methyl-N-((R,Z)-4-(methylsulfonyl)but-3-en-2-yl)piperidine-4-carboxamide], the IC50 worked out at 77 nM on PIK3CA and 117 nM in assay [1]. Further, the Emax in assay [1] turned out to be 99.8%.

As to `C[C@H](/C=C/C(=O)N1CC(F)(F)C1)NC(=O)[C@]1(F)CCN(S(=O)(=O)c2ccc(Br)cc2-c2ccccc2Cl)[C@H](C)C1` [Compound 153, (2R,4S)-1-((5-bromo-2′-chloro-[1,1′-biphenyl]-2-yl)sulfonyl)-N-((R,E)-5-(3,3-difluoroazetidin-1-yl)-5-oxopent-3-en-2-yl)-4-fluoro-2-methylpiperidine-4-carboxamide], the IC50 at PIK3CA worked out at 183 nM. Besides, in assay [1], the IC50 was found to be 204 nM and the Emax was found to be 104%.

On to `COC[C@@H](/C=C\S(C)(=O)=O)NC(=O)C1(F)CCN(S(=O)(=O)c2ccc(OC)cc2-c2ccccc2Cl)CC1` [Compound 248, (R,Z)-1-((2′-chloro-5-methoxy-[1,1′-biphenyl]-2-yl)sulfonyl)-4-fluoro-N-(1-methoxy-4-(methylsulfonyl)but-3-en-2-yl)piperidine-4-carboxamide], for which the figures for the IC50 (on PIK3CA; in assay [1]) were 170 nM and 557 nM, respectively.

As to `C[C@H](/C=C/C(=O)N1CC(F)C1)NC(=O)C1(F)CCN(S(=O)(=O)c2ccc(C(F)(F)F)cc2-c2ccccc2Cl)CC1` [Compound 216, (R,E)-1-((2′-chloro-5-(trifluoromethyl)-[1,1′-biphenyl]-2-yl)sulfonyl)-4-fluoro-N-(5-(3-fluoroazetidin-1-yl)-5-oxopent-3-en-2-yl)piperidine-4-carboxamide], the IC50 on PIK3CA was found to be 550 nM. Also, in assay [1], the IC50 came out at 688 nM and the Emax worked out at 108%.

As to `O=C(/C=C\CNC(=O)C1(F)CCN(S(=O)(=O)c2ccc(C(F)(F)F)cc2-c2ccccc2Cl)CC1)N1CC(F)(F)C1` [Compound 284, (Z)-1-((2′-chloro-5-(trifluoromethyl)-[1,1′-biphenyl]-2-yl)sulfonyl)-N-(4-(3,3-difluoroazetidin-1-yl)-4-oxobut-2-en-1-yl)-4-fluoropiperidine-4-carboxamide], the IC50 was 61 nM at PIK3CA and 67.4 nM in assay [1].

As for `CC(=O)c1ccc(S(=O)(=O)N2CCC(F)(C(=O)N[C@H](C)/C=C/C(=O)N3CC(F)(F)C3)CC2)c(-c2ccccc2Cl)c1` [Compound 138, (R,E)-1-((5-acetyl-2′-chloro-[1,1′-biphenyl]-2-yl)sulfonyl)-N-(5-(3,3-difluoroazetidin-1-yl)-5-oxopent-3-en-2-yl)-4-fluoropiperidine-4-carboxamide], the IC50 is 340 nM on PIK3CA and 292 nM in assay [1]. Further, in assay [1], the Emax was found to be 93.5%.

With `CC(O)c1ccc(S(=O)(=O)N2CC[C@@](F)(C(=O)N[C@H](C)/C=C/C(=O)N3CC(F)(F)C3)C[C@H]2C)c(-c2ccccc2Cl)c1` (mixture of isomers) [Compound 252, (2R,4S)-1-((2′-chloro-5-((RS)-1-hydroxyethyl)-[1,1′-biphenyl]-2-yl)sulfonyl)-N-((R,E)-5-(3,3-difluoroazetidin-1-yl)-5-oxopent-3-en-2-yl)-4-fluoro-2-methylpiperidine-4-carboxamide], the IC50 at PIK3CA is 280 nM. Further, in assay [1], the IC50 was 248 nM and the Emax amounted to 85.8%.

For `CC(O)c1ccc(S(=O)(=O)N2CCC(F)(C(=O)N[C@H](C)/C=C/C(=O)N3CC(F)(F)C3)CC2)c(-c2ccccc2Cl)c1` (stereo partly drawn) [Compound 140, 1-((2′-chloro-5-(1-hydroxyethyl)-[1,1′-biphenyl]-2-yl)sulfonyl)-N-((R,E)-5-(3,3-difluoroazetidin-1-yl)-5-oxopent-3-en-2-yl)-4-fluoropiperidine-4-carboxamide], the IC50 at PIK3CA was found to be 350 nM. In addition, in assay [1], the IC50 came out at 427 nM and the Emax amounted to 87.7%.

Regarding `C[C@H](/C=C/C(=O)N1CC(F)(F)C1)NC(=O)[C@]1(F)CCN(S(=O)(=O)c2ccc(C(F)F)cc2-c2ccccc2Cl)[C@H](C)C1` [Compound 253, (2R,4S)-1-((2′-chloro-5-(difluoromethyl)-[1,1′-biphenyl]-2-yl)sulfonyl)-N-((R,E)-5-(3,3-difluoroazetidin-1-yl)-5-oxopent-3-en-2-yl)-4-fluoro-2-methylpiperidine-4-carboxamide], at PIK3CA, the IC50 came to 160 nM. Besides, in assay [1], the IC50 came to 267 nM and the Emax worked out at 77.2%.

`C[C@H](/C=C\S(C)(=O)=O)NC(=O)C1(F)CCN(C(=O)[C@H]2CN(CC(F)F)C[C@H]2c2ccccc2Cl)CC1` [Compound 206, 1-((3R,4R)-4-(2-chlorophenyl)-1-(2,2-difluoroethyl)pyrrolidine-3-carbonyl)-4-fluoro-N-((R,Z)-4-(methylsulfonyl)but-3-en-2-yl)piperidine-4-carboxamide]: the values for the IC50 (on PIK3CA; in assay [1]) were 800 nM and 718 nM, respectively. In addition, the Emax in assay [1] is 106%.

On to `C[C@H](/C=C/C(=O)N1CC(F)(F)C1)NC(=O)[C@@]1(F)CCCN(C(=O)c2ccc(C(F)(F)F)cc2-c2ccccc2Cl)CC1` [Compound 244, (R)-1-(2′-chloro-5-(trifluoromethyl)-[1,1′-biphenyl]-2-carbonyl)-N-((R,E)-5-(3,3-difluoroazetidin-1-yl)-5-oxopent-3-en-2-yl)-4-fluoroazepane-4-carboxamide], for which, at PIK3CA, the IC50 stood at 780 nM. In assay [1], the IC50 worked out at 1200 nM and the Emax was determined as 76.3%.

For `C[C@H](/C=C\S(C)(=O)=O)NC(=O)C1(F)CCN(S(=O)(=O)c2ccc(N3CCCC3=O)cc2-c2ccccc2Cl)CC1` [Compound 205, (R,Z)-1-((2′-chloro-5-(2-oxopyrrolidin-1-yl)-[1,1′-biphenyl]-2-yl)sulfonyl)-4-fluoro-N-(4-(methylsulfonyl)but-3-en-2-yl)piperidine-4-carboxamide], the IC50 on PIK3CA came out at 650 nM; in assay [1] it was 1120 nM.

Turning to `C[C@@H](/C=C\S(C)(=O)=O)NC(=O)C1(F)CCN(S(=O)(=O)c2cnc(C(F)(F)F)cc2-c2cccc(F)c2Cl)CC1` [Compound 210, (S,Z)-1-((4-(2-chloro-3-fluorophenyl)-6-(trifluoromethyl)pyridin-3-yl)sulfonyl)-4-fluoro-N-(4-(methylsulfonyl)but-3-en-2-yl)piperidine-4-carboxamide], the values for the IC50 (on PIK3CA; in assay [1]) were 110 nM and 214 nM, respectively.

Consider `C[C@H](/C=C\S(C)(=O)=O)NC(=O)[C@@]1(F)CCCN(S(=O)(=O)c2ccc(C(F)(F)F)cc2-c2ccccc2Cl)CC1` [Compound 310, (R)-1-((2′-chloro-5-(trifluoromethyl)-[1,1′-biphenyl]-2-yl)sulfonyl)-4-fluoro-N—((R,Z)-4-(methylsulfonyl)but-3-en-2-yl)azepane-4-carboxamide], for which the IC50 on PIK3CA was determined as 85 nM; in assay [1] it was 77.1 nM.

On to `C[C@H](/C=C\S(C)(=O)=O)NC(=O)[C@@]1(F)CCCN(C(=O)[C@@]2(C)CN(CC(F)(F)F)C[C@H]2c2ccccc2Cl)CC1` [Compound 254, (R)-1-((3R,4R)-4-(2-chlorophenyl)-3-methyl-1-(2,2,2-trifluoroethyl)pyrrolidine-3-carbonyl)-4-fluoro-N-((R,Z)-4-(methylsulfonyl)but-3-en-2-yl)azepane-4-carboxamide], for which the IC50 on PIK3CA is 880 nM. Moreover, in assay [1], the IC50 stood at 911 nM and the Emax was 92.5%.

`C[C@H](/C=C\S(C)(=O)=O)NC(=O)[C@]1(F)CCN(S(=O)(=O)c2ccc(OC(F)(F)F)cc2-c2ccccc2Cl)[C@H](C)C1` [Compound 250, (2R,4S)-1-((2′-chloro-5-(trifluoromethoxy)-[1,1′-biphenyl]-2-yl)sulfonyl)-4-fluoro-2-methyl-N-((R,Z)-4-(methylsulfonyl)but-3-en-2-yl)piperidine-4-carboxamide]: the results for the IC50 (on PIK3CA; in assay [1]) were 350 nM and 1640 nM, respectively. In assay [1], the Emax was determined as 96.8%.

Values taken from US20250026721A1, “COMPOUNDS AND METHODS FOR MODULATING RAS-PI3K” (Vividion Therapeutics, Inc., priority 2023, published 2025).
